Measurements: PubChem BioAssay AID2060510 (Molecular Pharmacology Branch, DTP, NCI, 2025)

System: 439559-082-T-J2-PDC spheroids viability
Assay: Anticancer human tumor 439559-082-T-J2-PDC patient-derived colon adenocarcinoma cell line growth inhibition [GQUAD]
Settings: for IC50: curve of first compound; for viability, T/C: stronger effect = lower value
Procedure, shortened: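 Viability of tumor cells grown as complex spheroids with endothelial and stromal cells, exposed to drug combinations. Top concentration at or near clinical Cmax (else 10 microM), diluted in half-log increments.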

[1] = second compound 0.0316 µM, first compound 0.0316 µM
[2] = second compound 0.0316 µM, first compound 0.316 µM
[3] = second compound 0.1 µM, first compound 0.0316 µM
[4] = second compound 0.1 µM, first compound 0.316 µM
[5] = second compound 0.316 µM, first compound 0.0316 µM
[6] = second compound 0.316 µM, first compound 0.316 µM
[7] = second compound 1 µM, first compound 0.0316 µM
[8] = second compound 1 µM, first compound 0.316 µM
[9] = second compound 3.16 µM, first compound 0.0316 µM
[10] = second compound 3.16 µM, first compound 0.316 µM
[11] = second compound 10 µM, first compound 0.0316 µM
[12] = second compound 10 µM, first compound 0.316 µM
[13] = second compound 0.0316 µM, first compound 0.000999 µM
[14] = second compound 0.0316 µM, first compound 0.00316 µM
[15] = second compound 0.0316 µM, first compound 0.00999 µM
[16] = second compound 0.0316 µM, first compound 0.0999 µM
[17] = second compound 0.1 µM, first compound 0.000999 µM
[18] = second compound 0.1 µM, first compound 0.00316 µM
[19] = second compound 0.1 µM, first compound 0.00999 µM
[20] = second compound 0.1 µM, first compound 0.0999 µM
[21] = second compound 0.316 µM, first compound 0.000999 µM
[22] = second compound 0.316 µM, first compound 0.00316 µM
[23] = second compound 0.316 µM, first compound 0.00999 µM
[24] = second compound 0.316 µM, first compound 0.0999 µM
[25] = second compound 1 µM, first compound 0.000999 µM
[26] = second compound 1 µM, first compound 0.00316 µM
[27] = second compound 1 µM, first compound 0.00999 µM
[28] = second compound 1 µM, first compound 0.0999 µM
[29] = second compound 3.16 µM, first compound 0.000999 µM
[30] = second compound 3.16 µM, first compound 0.00316 µM
[31] = second compound 3.16 µM, first compound 0.00999 µM
[32] = second compound 3.16 µM, first compound 0.0999 µM
[33] = second compound 10 µM, first compound 0.000999 µM
[34] = second compound 10 µM, first compound 0.00316 µM
[35] = second compound 10 µM, first compound 0.00999 µM
[36] = second compound 10 µM, first compound 0.0999 µM
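Further: spheroids exposed to the agents for 7 days before readout.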
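Wherever viability, T/C is given: percent of luminescence signal in DMSO vehicle wells taken as 100% viability.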

Work on `C=CC(=O)N1CCN(c2nc(=O)n(-c3c(C)ccnc3C(C)C)c3nc(-c4c(O)cccc4F)c(F)cc23)C(C)C1` (stereo unspecified) + Cc1cnc(CNC(=O)c2c(=O)c3ccc(N4CCCN(C)CC4)nc3n3c2sc2ccccc23)cn1 yielded an IC50 (second compound 0.0316 µM) greater than 10000 nM, an IC50 (second compound 0.1 µM) greater than 10000 nM and an IC50 (second compound 0.316 µM) greater than 10000 nM. For the same compound, the IC50 (second compound 1 µM) was greater than 10000 nM, the IC50 (second compound 3.16 µM) was greater than 10000 nM and the IC50 (second compound 10 µM) was greater than 10000 nM. For the same compound, the viability, T/C [1] was 116%, the viability, T/C (second compound 0.0316 µM, first compound 0.1 µM) was 95.1% and the viability, T/C [2] was 103%. The viability, T/C (second compound 0.0316 µM, first compound 1 µM) was 110%, the viability, T/C (second compound 0.0316 µM, first compound 3.16 µM) was 95.6% and the viability, T/C (second compound 0.0316 µM, first compound 10 µM) was 111%. For the same compound, the viability, T/C [3] was 99.3%, the viability, T/C (second compound 0.1 µM, first compound 0.1 µM) was 99.1% and the viability, T/C [4] was 87.3%. The viability, T/C (second compound 0.1 µM, first compound 1 µM) was 87.9%, the viability, T/C (second compound 0.1 µM, first compound 3.16 µM) was 93% and the viability, T/C (second compound 0.1 µM, first compound 10 µM) was 93.2%. For the same compound, the viability, T/C [5] was 95.2%, the viability, T/C (second compound 0.316 µM, first compound 0.1 µM) was 92.3% and the viability, T/C [6] was 84.9%. The viability, T/C (second compound 0.316 µM, first compound 1 µM) was 91.2%, the viability, T/C (second compound 0.316 µM, first compound 3.16 µM) was 91.1% and the viability, T/C (second compound 0.316 µM, first compound 10 µM) was 93%. The viability, T/C [7] was 73.7%, the viability, T/C (second compound 1 µM, first compound 0.1 µM) was 83% and the viability, T/C [8] was 76.1%. For the same compound, the viability, T/C (second compound 1 µM, first compound 1 µM) was 75.4%, the viability, T/C (second compound 1 µM, first compound 3.16 µM) was 87.9% and the viability, T/C (second compound 1 µM, first compound 10 µM) was 75.9%. It also gave a viability, T/C [9] of 76.9%, a viability, T/C (second compound 3.16 µM, first compound 0.1 µM) of 73% and a viability, T/C [10] of 71.5%. For the same compound, the viability, T/C (second compound 3.16 µM, first compound 1 µM) was 71.1%, the viability, T/C (second compound 3.16 µM, first compound 3.16 µM) was 78% and the viability, T/C (second compound 3.16 µM, first compound 10 µM) was 72.9%. The viability, T/C [11] was 59.2%, the viability, T/C (second compound 10 µM, first compound 0.1 µM) was 74.7% and the viability, T/C [12] was 75.8%. The viability, T/C (second compound 10 µM, first compound 1 µM) was 76.2%, the viability, T/C (second compound 10 µM, first compound 3.16 µM) was 77.1% and the viability, T/C (second compound 10 µM, first compound 10 µM) was 72.6%.

Work on `CC[C@@]1(O)C(=O)OCc2c1cc1n(c2=O)Cc2cc3c(CN(C)C)c(O)ccc3nc2-1` + Cc1cnc(CNC(=O)c2c(=O)c3ccc(N4CCCN(C)CC4)nc3n3c2sc2ccccc23)cn1 yielded an IC50 (second compound 0.0316 µM) greater than 316 nM, an IC50 (second compound 0.1 µM) greater than 316 nM and an IC50 (second compound 0.316 µM) greater than 316 nM. The IC50 (second compound 1 µM) was greater than 316 nM, the IC50 (second compound 3.16 µM) was greater than 316 nM and the IC50 (second compound 10 µM) was greater than 316 nM. For the same compound, the viability, T/C [13] was 98.9%, the viability, T/C [14] was 89.6% and the viability, T/C [15] was 94.6%. The viability, T/C [1] was 88.7%, the viability, T/C [16] was 82.4% and the viability, T/C [2] was 81.9%. It also gave a viability, T/C [17] of 91.7%, a viability, T/C [18] of 81.5% and a viability, T/C [19] of 96.5%. It also gave a viability, T/C [3] of 95.8%, a viability, T/C [20] of 83% and a viability, T/C [4] of 81.8%. For the same compound, the viability, T/C [21] was 79.7%, the viability, T/C [22] was 85.2% and the viability, T/C [23] was 79.5%. For the same compound, the viability, T/C [5] was 75.8%, the viability, T/C [24] was 83.4% and the viability, T/C [6] was 69%. For the same compound, the viability, T/C [25] was 73.5%, the viability, T/C [26] was 70.3% and the viability, T/C [27] was 74.5%. It also gave a viability, T/C [7] of 79.1%, a viability, T/C [28] of 80% and a viability, T/C [8] of 67.4%. The viability, T/C [29] was 71.5%, the viability, T/C [30] was 72% and the viability, T/C [31] was 68.6%. For the same compound, the viability, T/C [9] was 71.4%, the viability, T/C [32] was 72.8% and the viability, T/C [10] was 66.9%. For the same compound, the viability, T/C [33] was 64.3%, the viability, T/C [34] was 71.8% and the viability, T/C [35] was 66.6%. The viability, T/C [11] was 70.7%, the viability, T/C [36] was 66.4% and the viability, T/C [12] was 61.1%.

For `CCc1c2c(nc3ccc(O)cc13)-c1cc3c(c(=O)n1C2)COC(=O)[C@]3(O)CC` + Cc1cnc(CNC(=O)c2c(=O)c3ccc(N4CCCN(C)CC4)nc3n3c2sc2ccccc23)cn1, the IC50 (second compound 0.0316 µM) was 157 nM, the IC50 (second compound 0.1 µM) was 122 nM and the IC50 (second compound 0.316 µM) was 125 nM. It also gave an IC50 (second compound 1 µM) of 92.4 nM, an IC50 (second compound 3.16 µM) of 61 nM and an IC50 (second compound 10 µM) of 67.2 nM. It also gave a viability, T/C [13] of 99.4%, a viability, T/C [14] of 83.5% and a viability, T/C [15] of 78.8%. For the same compound, the viability, T/C [1] was 66.4%, the viability, T/C [16] was 53.7% and the viability, T/C [2] was 43.1%. The viability, T/C [17] was 88.7%, the viability, T/C [18] was 79.5% and the viability, T/C [19] was 76.2%. It also gave a viability, T/C [3] of 68.1%, a viability, T/C [20] of 53.4% and a viability, T/C [4] of 34%. The viability, T/C [21] was 77.3%, the viability, T/C [22] was 70.1% and the viability, T/C [23] was 72.3%. It also gave a viability, T/C [5] of 65%, a viability, T/C [24] of 55% and a viability, T/C [6] of 31.8%. For the same compound, the viability, T/C [25] was 67.3%, the viability, T/C [26] was 69.9% and the viability, T/C [27] was 60.6%. For the same compound, the viability, T/C [7] was 59.4%, the viability, T/C [28] was 50.1% and the viability, T/C [8] was 33.8%. The viability, T/C [29] was 65.7%, the viability, T/C [30] was 74.8% and the viability, T/C [31] was 56.9%. It also gave a viability, T/C [9] of 55.7%, a viability, T/C [32] of 47.6% and a viability, T/C [10] of 24.6%. For the same compound, the viability, T/C [33] was 60.6%, the viability, T/C [34] was 60.4% and the viability, T/C [35] was 58.3%. For the same compound, the viability, T/C [11] was 52.8%, the viability, T/C [36] was 48.8% and the viability, T/C [12] was 20.1%.
